Key:
[1] = bixin in an extract standardized at 92% bixin; norbixin for an extract standardized at 91% of norbixin; cited from earlier work
[2] = cell-free, xanthine/xanthine oxidase system; cited from earlier work
chromosomal damage = conditions: mice, oral, 200 mg per kilogram of body weight before γ-irradiation (1.5-3.0 Gy); cited from earlier work
[3] = orally administered prior to chemotherapy; cited from earlier work
human skin explants = assay: Sunburn cell (SBC) count in UV-irradiated human skin explants; type: cell-based; conditions: for reduction of the number of SBC in the epidermis compared to the untreated and irradiated skin: 7 days of treatment, UV irradiation; for reduction of the number of SBC in the epidermis compared to the untreated and irradiated skin / Number of SBC per cm, Irradiated, Average: P1 330 ng·mL-1, P2 and P3 15.5 ng·mL-1; for Number of SBC per cm, Irradiated, Average: UVB 0.30 J/cm^2 and UVA 9 J/cm^2 on day 7, collection 24 hours after irradiation; for Number of SBC per cm, Unirradiated, Mean: unirradiated explants, day 8, P1 330 ng·mL-1, P2 and P3 15.5 ng·mL-1 in medium from day 0
Protocol: 3. Experimental Study of the Effect of a Bixin-Enriched Urucum Extract, of Bixin and of Norbixin (FIG. 1). Following treatment and UV-B irradiation of human skin explants, a Masson trichrome staining allows the visualization and counting of SBC. 3.1 Tested Products: • P1: urucum organic extract titrated at 6% bixin (330 ng·mL-1) • P2: pure bixin (15.5 ng·mL-1) • P3: pure norbixin (15.5 ng·mL-1) 27 explants (3 per condition) with a diameter of 10 mm were prepared from an abdominoplasty. The explants were cultured at 37° C. in a humid atmosphere containing 5% CO2. These explants were divided into nine (9) batches as follows: Urucum extract was dissolved in DMSO. The three products were added to the medium on the first day (D0), in order to achieve the desired final concentrations. The final amount of DMSO in the medium still remained below 1%. The explants of the control batch received no treatment. On day 7, the explants were exposed to UVB at a dose of 0.30 J/cm^2 and UVA at a dose of 9 J/cm^2. Non-irradiated batches were placed in the dark during the whole irradiation time. Immediately after irradiation, the explants were put back into culture medium. At day 8, i.e. 24 hours after irradiation, the three explants from each batch were taken and processed in the same way. After 48 hours of fixation in Bouin's fixative, samples were dried and impregnated in paraffin using a Leica 1020 automated dehydration controller. Microscopic observations were made by optical microscopy using a Leica DMLB model, with the ×40 lens. Observation of the morphology was performed on paraffin sections after staining with Goldner's variant of Masson's trichrome. Sunburn cells (SBC) were counted throughout each epidermis. The length of each epidermis was measured using the measurement module of the Leica IM1000 and the number of SBC per cm of skin was then calculated.

[4] = after ingestion of an oily annatto solution containing 16 mg bixin, cited from earlier work; for time for which the plasma concentration was observed: norbixin above 25 ng·mL^−1, bixin at 10 ng·mL^−1
Salmonella typhimurium = conditions: cited from earlier work
plasmid DNA = conditions: norbixin 10 μM, 10 μM H2O2, Sn^2+ or Fe^2+ ions; cited from earlier work
SOS system = conditions: in the presence of norbixin; cited from earlier work
E. coli = conditions: UV-radiation in the presence of H2O2 or superoxide anion; cited from earlier work
[5] = single dose of 120 mg or daily dose of 90 mg over 23 days; cited from earlier work

In the case of `COC(=O)/C=C/C(C)=C\C=C\C(C)=C\C=C\C=C(C)\C=C\C=C(C)\C=C\C(=O)O` [P2, bixin], the “daily acceptable dose (JECFA)” value [1] is given as 12 mg/kg, the “superoxide scavenging ability, decreasing order” value [2] is given as “canthaxanthin>bixin>lutein>β-carotene” and the “chromosomal damage, micronucleus test” value (chromosomal damage) is given as “reduced the occurrence of chromosomal damage”. For the same compound, the “effect on side-effects of chemotherapy” value [3] was “reduce the side-effects of chemotherapy”, the “reduction of the number of SBC in the epidermis compared to the untreated and irradiated skin” value (human skin explants) was 74.4% and the “Number of SBC per cm, Irradiated, Average” value (human skin explants) was 41.9 per cm. The “Number of SBC per cm, Unirradiated, Mean” value (human skin explants) was 0.3 per cm, the plasma concentration [4] was 0.01 µg/mL and the “time for which the plasma concentration was observed” value [4] was “less than 4 hours”.

For `CC(/C=C/C=C(C)/C=C/C(=O)O)=C\C=C\C=C(C)\C=C\C=C(C)\C=C\C(=O)O` (stereo in doubt) [P3, norbixin], the “reduction of the mutagenic effect of H2O2” value (Salmonella typhimurium) is given as 87%, the “daily acceptable dose (JECFA)” value [1] is given as 0.6 mg/kg and the “protection of plasmid DNA against breaks” value (plasmid DNA) is given as “protect plasmid DNA”. The “reduction of the UV-C induced SOS system” value (SOS system) was 2.3 times, the “reduction of the number of SBC in the epidermis compared to the untreated and irradiated skin” value (human skin explants) was 84.4% and the “Number of SBC per cm, Irradiated, Average” value (human skin explants) was 25.5 per cm. The “Number of SBC per cm, Unirradiated, Mean” value (human skin explants) was 0.3 per cm, the “increase of survival of bacteria (factor)” value (E. coli) was 10 and the plasma concentration [4] was “higher than 25 ng·mL^−1”. For the same compound, the “time for which the plasma concentration was observed” value [4] was “more than 6 hours”.

In the case of `CC1=C(/C=C/C(C)=C/C=C/C(C)=C/C=C/C=C(C)/C=C/C=C(C)/C=C/C2=C(C)C(=O)CCC2(C)C)C(C)(C)CCC1=O` [canthaxanthin], the “superoxide scavenging ability, decreasing order” value [2] is given as “canthaxanthin>bixin>lutein>β-carotene”.

In the case of `CC1=C[C@H](O)CC(C)(C)[C@H]1/C=C/C(C)=C/C=C/C(C)=C/C=C/C=C(C)/C=C/C=C(C)/C=C/C1=C(C)C[C@@H](O)CC1(C)C` [lutein], the “superoxide scavenging ability, decreasing order” value [2] is given as “canthaxanthin>bixin>lutein>β-carotene”.

In the case of `CC1=C(/C=C/C(C)=C/C=C/C(C)=C/C=C/C=C(C)/C=C/C=C(C)/C=C/C2=C(C)CCCC2(C)C)C(C)(C)CCC1` [β-carotene], the “superoxide scavenging ability, decreasing order” value [2] is given as “canthaxanthin>bixin>lutein>β-carotene” and the “protective effect against sun” value [5] is given as “ineffective”.

Source: patent US9173823B2, “Preparation for sun protection” (INSTITUT BIOPHYTIS SAS, priority 2009, dated 2015)
